Test results: article PMC7292872 (Saudi Pharmaceutical Journal : SPJ, 2020)
pKd: −log10 of the molar value.

Biological target: Human serum albumin (HSA) (Homo sapiens, UniProt P02768)
Test: UV-Vis absorption titration at […] nm
Assay type: binding

Sequence of Human serum albumin (HSA) (P02768 25-609): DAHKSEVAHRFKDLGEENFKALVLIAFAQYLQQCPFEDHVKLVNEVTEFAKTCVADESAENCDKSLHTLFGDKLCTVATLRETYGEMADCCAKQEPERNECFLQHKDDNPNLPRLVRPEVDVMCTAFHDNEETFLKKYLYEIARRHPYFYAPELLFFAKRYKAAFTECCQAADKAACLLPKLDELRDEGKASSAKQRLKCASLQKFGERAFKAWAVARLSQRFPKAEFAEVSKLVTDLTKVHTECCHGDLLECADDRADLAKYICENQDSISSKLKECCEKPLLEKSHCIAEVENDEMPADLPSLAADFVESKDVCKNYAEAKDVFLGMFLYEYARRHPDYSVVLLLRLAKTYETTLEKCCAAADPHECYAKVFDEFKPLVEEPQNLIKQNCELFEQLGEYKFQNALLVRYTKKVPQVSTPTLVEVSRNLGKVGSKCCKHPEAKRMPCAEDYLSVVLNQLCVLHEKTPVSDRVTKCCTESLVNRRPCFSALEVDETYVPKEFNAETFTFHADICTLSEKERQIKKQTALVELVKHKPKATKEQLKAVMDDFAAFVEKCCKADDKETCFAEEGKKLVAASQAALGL

Work on CCCc1nc2c(C)cc(-c3nc4ccccc4n3C)cc2n1Cc1ccc(-c2ccccc2C(=O)O)cc1 [TLM] yielded a pKd of 3.00.
